The source made the active and inactive calls. The calls are words filed in the database; no cut-off is given here.
How the values were obtained:
[1] = molecular target: T1, 5-hydroxytryptamine receptor 1A (Homo sapiens) (UniProt P08908); experiment: Partial agonist efficacy in the 5-HT1A GTPgammaS functional assay; Expressed as fraction of 5-HT efficacy
T1 sequence (whole entry): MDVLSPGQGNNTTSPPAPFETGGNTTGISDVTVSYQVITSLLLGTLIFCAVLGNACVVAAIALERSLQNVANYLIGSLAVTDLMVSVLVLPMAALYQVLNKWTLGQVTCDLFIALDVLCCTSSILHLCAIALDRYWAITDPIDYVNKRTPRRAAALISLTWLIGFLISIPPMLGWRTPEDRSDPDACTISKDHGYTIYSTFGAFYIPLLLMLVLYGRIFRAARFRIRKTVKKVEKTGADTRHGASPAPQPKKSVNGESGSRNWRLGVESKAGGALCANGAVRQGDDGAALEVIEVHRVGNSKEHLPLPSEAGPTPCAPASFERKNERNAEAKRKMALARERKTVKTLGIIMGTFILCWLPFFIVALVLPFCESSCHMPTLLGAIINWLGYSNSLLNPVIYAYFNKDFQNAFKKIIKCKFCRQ

[2] = molecular target: T2, 5-hydroxytryptamine receptor 1B (Homo sapiens, UniProt P28222); experiment: Partial agonist efficacy in the 5-HT1B GTPgammaS functional assay; Expressed as fraction of 5-HT efficacy
T2 sequence (P28222 whole entry): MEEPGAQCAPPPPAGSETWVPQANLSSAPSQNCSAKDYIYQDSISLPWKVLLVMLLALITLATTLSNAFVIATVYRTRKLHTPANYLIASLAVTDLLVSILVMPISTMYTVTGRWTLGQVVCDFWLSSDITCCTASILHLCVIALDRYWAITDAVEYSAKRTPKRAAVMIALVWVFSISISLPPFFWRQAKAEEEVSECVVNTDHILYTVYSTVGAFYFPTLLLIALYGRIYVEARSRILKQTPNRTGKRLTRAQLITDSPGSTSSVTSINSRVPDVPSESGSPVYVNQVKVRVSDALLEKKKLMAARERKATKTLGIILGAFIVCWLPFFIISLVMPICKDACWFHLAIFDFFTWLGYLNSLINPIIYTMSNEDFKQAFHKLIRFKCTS

[3] = molecular target: T3, 5-hydroxytryptamine receptor 1A (Homo sapiens, UniProt P08908); experiment: Mean binding affinity towards 5-hydroxytryptamine 1A receptor using [3H]-5-HT or [3H]8-OH-DPAT as the radioligand
T3 sequence (P08908 whole entry): T1 sequence (whole entry)

[4] = molecular target: T2, 5-hydroxytryptamine receptor 1B; experiment: Mean binding affinity towards 5-hydroxytryptamine 1B receptor using [3H]5-HT or [3H]-8-OH-DPAT as the radioligand
[5] = molecular target: 5-hydroxytryptamine receptor 1D (Homo sapiens, UniProt P28221); experiment: Mean binding affinity towards 5-hydroxytryptamine 1D receptor using [3H]5-HT or [3H]-8-OH-DPAT as the radioligand
Sequence of 5-hydroxytryptamine receptor 1D (P28221 whole entry): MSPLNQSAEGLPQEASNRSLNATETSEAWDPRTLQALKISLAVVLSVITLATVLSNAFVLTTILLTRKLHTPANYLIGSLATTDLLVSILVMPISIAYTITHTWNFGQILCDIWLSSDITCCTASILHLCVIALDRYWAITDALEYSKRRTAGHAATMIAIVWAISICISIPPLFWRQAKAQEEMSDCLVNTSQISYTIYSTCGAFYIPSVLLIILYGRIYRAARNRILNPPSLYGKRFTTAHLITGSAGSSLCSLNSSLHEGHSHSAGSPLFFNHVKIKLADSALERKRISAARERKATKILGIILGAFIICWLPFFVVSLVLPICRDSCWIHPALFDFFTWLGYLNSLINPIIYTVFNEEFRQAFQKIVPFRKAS

[6] = Oral bioavailability in rat; format: ADME, organism-based; details: in vivo
[7] = Brain/blood concentration after administration in rat; format: ADME, tissue-based; details: read-out: Brain/Blood concentration
[8] = In vivo clearance after administration in rat; format: ADME, organism-based; details: blood, read-out: CLb
[9] = molecular target: T1, 5-hydroxytryptamine receptor 1A (Homo sapiens); experiment: Partial agonist efficacy in the 5-HT1A GTPgammaS functional assay; Expressed as fraction of 5-HT efficacy; Inactive

Row | Compound | Efficacy [1] | Efficacy [2] | Ki [3] | Ki [4] | Ki [5] | bioavailability [6] | Kp [7] | clearance [8] | Efficacy [9]
1 | CN1CCN(c2nccc3cc4c(cc23)N(C(=O)c2ccccc2Cl)CC4)CC1 | 0.42 | 0.42 | 5.01 nM | 1.26 nM | 2.51 nM |  |  |  | 
2 | CN1CCN(c2cc3c(cc2Cl)CCN3C(=O)Nc2ccc(-c3ccncc3)c3ccccc23)CC1 |  |  | 10 nM | 7.94 nM | 2 nM |  |  |  | 
3 | Cc1c(C(=O)N2CCc3cc4ccnc(N5CCN(C)CC5)c4cc32)cnn1-c1ccccc1 | 0.54 | 0.59 | 0.631 nM | 0.631 nM | 0.631 nM | 40% | 1.1 | 32 mL/min/kg | 
4 | CCc1c(C(=O)N2CCc3cc4ccnc(N5CCN6CCC[C@H]6C5)c4cc32)cnn1-c1ccc(C#N)cc1 |  |  | 1.26 nM | 2 nM | 3.16 nM |  |  |  | 
5 | CCc1c(C(=O)N2CCc3cc4ccnc(N5CCN(C(C)C)CC5)c4cc32)cnn1-c1ccc(C#N)cc1 |  |  | 6.31 nM | 3.98 nM | 7.94 nM |  |  |  | 
6 | CCc1c(C(=O)N2CCc3cc4ccnc(N5C[C@@H](C)N[C@@H](C)C5)c4cc32)cnn1-c1ccc(C#N)cc1 |  |  | 31.6 nM | 7.94 nM | 7.94 nM |  |  |  | 
7 | CCc1c(C(=O)N2CCc3cc4ccnc(N5CCN(C)CC5)c4cc32)cnn1-c1ccc(C#N)cc1 | 0.33 | 0.47 | 1.26 nM | 1 nM | 0.631 nM | 50% | 0.5 | 28 mL/min/kg | 
8 | CN1CCN(c2nccc3cc4c(cc23)N(C(=O)c2ccc(C#N)cc2)CC4)CC1 | 0.84 | 0.86 | 1 nM | 0.501 nM | 0.794 nM |  | 0.7 | 19 mL/min/kg | 
9 | CCc1c(C(=O)N2CCc3cc4ccnc(N5CCN6CCC[C@@H]6C5)c4cc32)cnn1-c1ccc(C#N)cc1 |  |  | 1.58 nM | 1 nM | 1 nM |  |  |  | 
10 | CN1CCN(c2nccc3cc4c(cc23)N(C(=O)c2ccccc2C(F)(F)F)CC4)CC1 |  | 0.23 | 10 nM | 15.8 nM | 15.8 nM |  |  |  | inactive
11 | CN1CCN(c2nccc3cc4c(cc23)N(C(=O)c2cccc3ncccc23)CC4)CC1 |  |  | 3.98 nM | 0.794 nM | 3.98 nM |  | 0.2 | 75 mL/min/kg | 
12 | CN1CCN(c2nccc3cc4c(cc23)N(C(=O)c2cnn(C)c2C(F)(F)F)CC4)CC1 |  |  | 6.31 nM | 5.01 nM | 10 nM |  | 0.1 | 48 mL/min/kg | 

More lines, in order of falling Ki [3], values ahead:

Row | Efficacy [1] | Efficacy [2] | Ki [3] | Ki [4] | Ki [5] | bioavailability [6] | Kp [7] | clearance [8] | Efficacy [9] | Compound
13 |  |  | 6.31 nM | 15.8 nM | 2.51 nM | 55% | 0.5 | 39 mL/min/kg |  | Cc1nc(C)c(C(=O)N2CCc3cc4ccnc(N5CCN(C)CC5)c4cc32)o1
14 |  |  | 5.01 nM | 2 nM | 7.94 nM |  |  |  |  | Cc1cc(C(=O)N2CCc3cc4ccnc(N5CCN(C)CC5)c4cc32)c(C(F)(F)F)o1
15 |  |  | 3.16 nM | 1.58 nM | 2.51 nM |  |  |  |  | CCc1c(C(=O)N2CCc3cc4ccnc(N5CCN(CC)CC5)c4cc32)cnn1-c1ccc(C#N)cc1
16 |  |  | 3.16 nM | 0.251 nM | 0.501 nM |  |  |  |  | CN1CCN(c2nccc3cc4c(cc23)N(C(=O)c2ccc(C(F)(F)F)nc2)CC4)CC1
17 |  |  | 1.26 nM | 2.51 nM | 2.51 nM |  |  |  |  | CCc1c(C(=O)N2CCc3cc4ccnc(N5CCNCC5)c4cc32)cnn1-c1ccc(C#N)cc1
18 | 0.69 | 0.75 | 0.794 nM | 0.316 nM | 0.501 nM |  | 1.3 | 29 mL/min/kg |  | CN1CCN(c2nccc3cc4c(cc23)N(C(=O)c2ccc(Cl)cc2)CC4)CC1
19 |  |  | 0.316 nM | 1 nM | 1.26 nM |  |  |  |  | CN1CCN(c2nccc3cc4c(cc23)N(C(=O)c2cnn3ccccc23)CC4)CC1

From ChEMBL document CHEMBL1142743, “8-Piperazinyl-2,3-dihydropyrrolo[3,2-g]isoquinolines: potent, selective, orally bioavailable 5-HT1 receptor ligands” (Bioorg Med Chem Lett, 2005)
